Laboratory results reported in ChEMBL document CHEMBL3400102, “Design, synthesis and biological evaluation of N-phenylthieno[2,3-d]pyrimidin-4-amines as inhibitors of FGFR1” (Bioorg Med Chem, 2015).

Target: Fibroblast growth factor receptor 1 (Homo sapiens, UniProt P11362)
Test: Inhibition of FGFR1 (unknown origin) using KKKSPGEYVNIEFG peptide substrate assessed as incorporation of [32P] into peptide by scintillation counting analysis
Conditions: not given

Sequence of Fibroblast growth factor receptor 1 (P11362 whole entry): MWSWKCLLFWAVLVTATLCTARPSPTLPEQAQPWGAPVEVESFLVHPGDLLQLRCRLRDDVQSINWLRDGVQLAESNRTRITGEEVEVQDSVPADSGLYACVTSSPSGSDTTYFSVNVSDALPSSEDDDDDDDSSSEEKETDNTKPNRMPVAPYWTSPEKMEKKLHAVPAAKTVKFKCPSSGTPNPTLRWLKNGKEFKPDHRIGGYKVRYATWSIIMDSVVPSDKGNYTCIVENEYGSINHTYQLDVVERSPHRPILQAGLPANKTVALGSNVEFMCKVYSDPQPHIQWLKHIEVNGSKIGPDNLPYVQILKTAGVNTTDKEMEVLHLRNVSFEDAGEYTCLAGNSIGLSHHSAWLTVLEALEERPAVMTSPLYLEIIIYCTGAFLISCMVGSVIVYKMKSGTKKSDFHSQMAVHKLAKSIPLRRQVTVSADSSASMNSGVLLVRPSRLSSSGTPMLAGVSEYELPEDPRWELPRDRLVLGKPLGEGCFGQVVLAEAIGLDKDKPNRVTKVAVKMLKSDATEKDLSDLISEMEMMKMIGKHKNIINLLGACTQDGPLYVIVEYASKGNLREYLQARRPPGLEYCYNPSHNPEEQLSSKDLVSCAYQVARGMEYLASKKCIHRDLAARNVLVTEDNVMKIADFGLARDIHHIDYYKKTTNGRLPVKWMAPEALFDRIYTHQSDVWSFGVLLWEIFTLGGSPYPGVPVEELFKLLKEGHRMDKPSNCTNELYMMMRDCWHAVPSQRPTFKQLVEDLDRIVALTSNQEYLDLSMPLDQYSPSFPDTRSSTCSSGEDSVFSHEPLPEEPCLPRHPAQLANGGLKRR

Going from `CCOC(=O)c1sc2ncnc(Nc3cccc(C(=O)O)c3)c2c1C` to `CCOC(=O)c1sc2ncnc(Nc3cccc(O)c3)c2c1C`, the IC50 falls from over 30 µM to 0.5 µM. The second is the more potent here.

First: Cc1ccc(-c2csc3ncnc(Nc4ccc(C(=O)O)cc4)c23)cc1
Second: Cc1ccc(-c2csc3ncnc(Nc4cccc(C(=O)O)c4)c23)cc1
The IC50 of the first is higher: over 30 µM for the first, 11 µM for the second. The second is the more potent here.

First: CCOc1ccc(-c2csc3ncnc(Nc4cccc(O)c4)c23)cc1
Second: CCOc1ccc(-c2csc3ncnc(Nc4ccc(O)cc4)c23)cc1
The IC50 of the first is lower: 12.5 µM for the first, over 30 µM for the second.

First: Cc1cc2c(Nc3ccc(O)cc3)ncnc2s1
Second: Oc1ccc(Nc2ncnc3sc(-c4ccccc4)cc23)cc1
The IC50 of the first is 4.7-fold higher: 5.6 µM for the first, 1.2 µM for the second. The second is the more potent here.

Compared with `Oc1ccc(Nc2ncnc3scc(-c4ccccc4)c23)cc1`, `Fc1ccc(Nc2ncnc3scc(-c4ccccc4)c23)cc1` is 3.8-fold higher in IC50: 1.66 µM for the first, 6.3 µM for the second.

First: Fc1ccc(Nc2ncnc3sc4c(c23)CCCC4)cc1
Second: Fc1ccc(Nc2ncnc3sc4c(c23)CCCCC4)cc1Cl
The IC50 of the first is 2-fold higher: 3.2 µM for the first, 1.6 µM for the second. The second is the more potent here.

`Fc1ccc(Nc2ncnc3scc(-c4ccc(Cl)cc4)c23)cc1` and `Cc1ccc(-c2csc3ncnc(Nc4ccc(F)cc4)c23)cc1` cannot be ordered by IC50: over 30 µM for the first, over 30 µM for the second.

`CCOC(=O)c1sc2ncnc(Nc3ccc(F)cc3)c2c1C` and `CCOC(=O)c1sc2ncnc(Nc3ccc(OC)cc3)c2c1C` cannot be ordered by IC50: over 30 µM for the first, over 30 µM for the second.

Going from `Fc1ccccc1Nc1ncnc2sc3c(c12)CCCCC3` to `Fc1ccccc1Nc1ncnc2scc(-c3ccccc3)c12`, the IC50 rises from 4.3 µM to over 30 µM. The first is the more potent here.

Compared with `Fc1ccccc1Nc1ncnc2sc(-c3ccccc3)cc12`, `Fc1ccc(Nc2ncnc3sc(-c4ccccc4)cc23)cc1` is 4.2-fold lower in IC50: 18.2 µM for the first, 4.3 µM for the second.

`COc1ccc(Nc2ncnc3scc(-c4ccccc4)c23)cc1` and `COc1cccc(Nc2ncnc3scc(-c4ccccc4)c23)c1` are within 1.5-fold of each other in IC50: 3 µM for the first, 2.5 µM for the second.

Compared with `COc1ccc(Nc2ncnc3scc(-c4ccc(C)cc4)c23)cc1`, `Cc1ccc(-c2csc3ncnc(Nc4cccc(O)c4)c23)cc1` is 7.1-fold lower in IC50: 5 µM for the first, 0.7 µM for the second.

`CCOC(=O)c1sc2ncnc(Nc3cccc(OC)c3)c2c1C` and `COc1cccc(Nc2ncnc3scc(-c4ccc(Cl)cc4)c23)c1` cannot be ordered by IC50: over 30 µM for the first, over 30 µM for the second.

Compared with `Cc1nc(Nc2ccc(O)cc2)c2cc(-c3ccccc3)sc2n1`, `Cc1sc2ncnc(Nc3ccc(O)cc3)c2c1-c1ccccc1` is 4-fold lower in IC50: 5 µM for the first, 1.25 µM for the second. The second is the more potent here.

First: Oc1ccc(Nc2ncnc3scc(-c4ccc(Cl)cc4)c23)cc1
Second: Oc1cccc(Nc2ncnc3scc(-c4ccc(Cl)cc4)c23)c1
The IC50 of the first is 6-fold higher: 3 µM for the first, 0.5 µM for the second.

`Oc1cccc(Nc2ncnc3scc(-c4ccccc4)c23)c1` and `Oc1cccc(Nc2ncnc3sc(-c4ccccc4)cc23)c1` are within 1.5-fold of each other in IC50: 0.18 µM for the first, 0.16 µM for the second.

System: not listed separately
Test: Antiproliferative activity against human KG1 cells after 72 hrs by MTT assay
Format: functional, cell-based
Conditions: KG-1, 72 h

`Cc1ccc(-c2csc3ncnc(Nc4cccc(O)c4)c23)cc1` and `Oc1cccc(Nc2ncnc3scc(-c4ccc(Cl)cc4)c23)c1` are within 1.5-fold of each other in IC50: 33.9 µM for the first, 50 µM for the second.

Compared with `Oc1cccc(Nc2ncnc3scc(-c4ccccc4)c23)c1`, `Oc1cccc(Nc2ncnc3sc(-c4ccccc4)cc23)c1` is 1.6-fold lower in IC50: 26.2 µM for the first, 16.2 µM for the second.
